# Assay results taken from publication PMC5448077, “Development of an orally available inhibitor of CLK1 for skipping a mutated dystrophin exon in Duchenne muscular dystrophy” (Scientific Reports, 2017).
# Tests used:
# [1] = target: T1, CDC2-like kinase 1 (CLK1) (Homo sapiens, UniProt P49759); experiment: biochemical
# Haspin = Haspin (Homo sapiens, UniProt Q8TF76); experiment: recombinant kinase panel (IMAP or mobility shift assay), percent inhibition at […] TG693; format: biochemical; settings: read-out: % inhibition at 1 μM
# [2] = target: T1, CDC2-like kinase 1 (CLK1); parameters: recombinant GST-tagged human CLK1; settings: 1 µM; inhibitor
# Procedure: These assays rely on the phosphorylation of small synthetic peptides developed for each kinase, and detect activity by changes in electrophoretic mobility (MSA assay) or by binding of a fluorescently labelled peptide to a large micro-particle and concomitant polarization increases (IMAP assay). […] Inhibitor (4×), substrate/ATP-Metal (4×), and kinase (2×) solutions were prepared with assay buffer (20 mM HEPES, 0.01% Triton X-100, 2 mM DTT, pH 7.5) and mixed in 384-well plates at room temperature for 1 or 5 h depending on the kinase. Reactions were stopped by the addition of termination buffer (QuickScout Screening Assist MSA; Carna Biosciences). The entire reaction mixture was then applied to a LabChip system (Perkin-Elmer, Waltham, MA, USA) and the product and substrate peptide peaks were separated and quantified, and then heights of product (P) and substrate (S) peptide peaks were calculated. The level of kinase activity was evaluated with the following equation: activity = P/(P + S).
# PDGFRα(V561D) = target: T2, PDGFRα(V561D) (Homo sapiens, UniProt P16234, V561D); experiment: biochemical
# T2 construct: gene PDGFRA
# Procedure: (§1) These assays rely on the phosphorylation of small synthetic peptides developed for each kinase, and detect activity by changes in electrophoretic mobility (MSA assay) or by binding of a fluorescently labelled peptide to a large micro-particle and concomitant polarization increases (IMAP assay). Reaction conditions for each kinase are described in Supplementary Table S5. All kinase assays were carried out at Carna Biosciences (Kobe, Japan). The inhibitory map was constructed using Kinome Render[41]. Inhibitor (4×), substrate/ATP-Metal (4×), and kinase (2×) solutions were prepared with assay buffer (20 mM HEPES, 0.01% Triton X-100, 2 mM DTT, pH 7.5) and mixed in 384-well plates at room temperature for 1 or 5 h depending on the kinase. Reactions were stopped by the addition of termination buffer (QuickScout Screening Assist MSA; Carna Biosciences). The entire reaction mixture was then applied to a LabChip system (Perkin-Elmer, Waltham, MA, USA) and the product and substrate peptide peaks were separated and quantified, and then heights of product (P) and substrate (S) peptide peaks were calculated. The level of kinase activity was evaluated with the following equation: activity = P/(P + S).
# EPHA3 = EPHA3 (Homo sapiens, UniProt P29320); experiment: biochemical
# Sequence of EPHA3 (P29320 whole entry): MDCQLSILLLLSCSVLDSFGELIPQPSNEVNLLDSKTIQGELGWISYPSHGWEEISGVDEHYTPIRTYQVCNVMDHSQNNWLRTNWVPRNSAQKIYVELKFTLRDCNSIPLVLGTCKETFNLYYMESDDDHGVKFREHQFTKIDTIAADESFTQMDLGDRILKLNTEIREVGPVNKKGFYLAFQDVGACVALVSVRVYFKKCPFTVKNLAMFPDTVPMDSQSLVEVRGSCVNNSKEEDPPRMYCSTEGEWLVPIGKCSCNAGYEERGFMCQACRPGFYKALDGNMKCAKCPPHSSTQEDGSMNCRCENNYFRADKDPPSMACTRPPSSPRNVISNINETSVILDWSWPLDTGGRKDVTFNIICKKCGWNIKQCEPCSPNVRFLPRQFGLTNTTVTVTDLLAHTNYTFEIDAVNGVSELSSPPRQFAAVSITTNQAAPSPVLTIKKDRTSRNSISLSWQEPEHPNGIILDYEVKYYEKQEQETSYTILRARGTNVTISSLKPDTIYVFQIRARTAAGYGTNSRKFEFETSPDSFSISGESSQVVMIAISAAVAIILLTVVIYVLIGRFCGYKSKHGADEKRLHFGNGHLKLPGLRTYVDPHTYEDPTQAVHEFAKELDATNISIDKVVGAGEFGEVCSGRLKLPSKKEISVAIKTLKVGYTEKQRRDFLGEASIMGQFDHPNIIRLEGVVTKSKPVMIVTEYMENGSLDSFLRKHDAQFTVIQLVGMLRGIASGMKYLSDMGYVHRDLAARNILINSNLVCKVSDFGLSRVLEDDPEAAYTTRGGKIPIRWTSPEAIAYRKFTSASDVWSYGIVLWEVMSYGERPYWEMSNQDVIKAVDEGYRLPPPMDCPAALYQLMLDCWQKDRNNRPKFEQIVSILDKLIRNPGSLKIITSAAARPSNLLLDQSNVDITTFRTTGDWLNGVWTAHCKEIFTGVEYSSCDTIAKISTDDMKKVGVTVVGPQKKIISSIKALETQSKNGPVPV
# Procedure: as §1
# EPHA7 = EPHA7 (Homo sapiens, UniProt Q15375); experiment: biochemical
# Procedure: as §1
# Erk2 = target: T3, Erk2 (Homo sapiens, UniProt P28482); experiment: biochemical
# T3 construct: gene MAPK1
# Procedure: as §1
# EGFR(T790M) = EGFR(T790M) (Homo sapiens, UniProt P00533, T790M); experiment: biochemical
# Procedure: as §1
# NuaK2 = NuaK2 (Homo sapiens, UniProt Q9H093); experiment: biochemical
# Procedure: as §1
# PKCγ = target: T4, PKCγ (Homo sapiens, UniProt P05129); experiment: biochemical
# T4 construct: gene PRKCG
# Procedure: as §1
# AMPKα2/β1/γ1 = target: T5, AMPKα2/β1/γ1 (Homo sapiens, UniProt P54646); experiment: biochemical
# T5 construct: gene PRKAA2
# Procedure: as §1
# EPHB2 = EPHB2 (Homo sapiens, UniProt P29323); experiment: biochemical
# Sequence of EPHB2 (P29323 whole entry): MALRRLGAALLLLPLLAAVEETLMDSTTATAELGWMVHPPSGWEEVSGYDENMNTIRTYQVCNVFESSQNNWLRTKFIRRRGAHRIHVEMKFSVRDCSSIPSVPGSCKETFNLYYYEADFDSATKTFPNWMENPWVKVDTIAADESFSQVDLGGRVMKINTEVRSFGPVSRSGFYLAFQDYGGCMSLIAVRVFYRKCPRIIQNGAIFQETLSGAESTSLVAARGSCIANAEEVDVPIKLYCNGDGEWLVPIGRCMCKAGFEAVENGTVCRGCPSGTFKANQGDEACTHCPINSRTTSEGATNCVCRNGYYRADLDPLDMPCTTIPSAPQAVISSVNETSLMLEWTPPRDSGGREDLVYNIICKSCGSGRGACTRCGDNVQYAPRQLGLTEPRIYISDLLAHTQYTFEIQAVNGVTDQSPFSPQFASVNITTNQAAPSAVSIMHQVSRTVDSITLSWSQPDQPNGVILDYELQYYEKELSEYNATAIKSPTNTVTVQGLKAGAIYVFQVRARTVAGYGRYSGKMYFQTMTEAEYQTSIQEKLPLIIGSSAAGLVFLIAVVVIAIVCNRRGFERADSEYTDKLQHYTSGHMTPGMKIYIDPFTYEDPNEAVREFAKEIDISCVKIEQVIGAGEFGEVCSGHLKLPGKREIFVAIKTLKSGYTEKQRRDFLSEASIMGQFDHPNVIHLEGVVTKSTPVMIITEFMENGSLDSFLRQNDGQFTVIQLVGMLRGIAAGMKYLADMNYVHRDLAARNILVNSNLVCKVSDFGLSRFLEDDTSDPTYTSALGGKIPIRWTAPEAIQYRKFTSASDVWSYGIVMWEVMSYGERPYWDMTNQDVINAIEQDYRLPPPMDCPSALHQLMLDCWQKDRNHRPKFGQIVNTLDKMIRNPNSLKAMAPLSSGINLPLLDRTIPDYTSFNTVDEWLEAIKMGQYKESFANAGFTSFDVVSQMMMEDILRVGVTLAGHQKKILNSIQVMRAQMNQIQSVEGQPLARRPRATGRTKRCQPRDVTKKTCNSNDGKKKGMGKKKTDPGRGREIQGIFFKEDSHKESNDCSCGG
# Procedure: as §1
# ROS = target: T6, ROS (Homo sapiens, UniProt P08922); experiment: biochemical
# T6 construct: gene ROS1
# Procedure: as §1
# LTK = LTK (Homo sapiens, UniProt P29376); experiment: biochemical
# Sequence of LTK (P29376 whole entry): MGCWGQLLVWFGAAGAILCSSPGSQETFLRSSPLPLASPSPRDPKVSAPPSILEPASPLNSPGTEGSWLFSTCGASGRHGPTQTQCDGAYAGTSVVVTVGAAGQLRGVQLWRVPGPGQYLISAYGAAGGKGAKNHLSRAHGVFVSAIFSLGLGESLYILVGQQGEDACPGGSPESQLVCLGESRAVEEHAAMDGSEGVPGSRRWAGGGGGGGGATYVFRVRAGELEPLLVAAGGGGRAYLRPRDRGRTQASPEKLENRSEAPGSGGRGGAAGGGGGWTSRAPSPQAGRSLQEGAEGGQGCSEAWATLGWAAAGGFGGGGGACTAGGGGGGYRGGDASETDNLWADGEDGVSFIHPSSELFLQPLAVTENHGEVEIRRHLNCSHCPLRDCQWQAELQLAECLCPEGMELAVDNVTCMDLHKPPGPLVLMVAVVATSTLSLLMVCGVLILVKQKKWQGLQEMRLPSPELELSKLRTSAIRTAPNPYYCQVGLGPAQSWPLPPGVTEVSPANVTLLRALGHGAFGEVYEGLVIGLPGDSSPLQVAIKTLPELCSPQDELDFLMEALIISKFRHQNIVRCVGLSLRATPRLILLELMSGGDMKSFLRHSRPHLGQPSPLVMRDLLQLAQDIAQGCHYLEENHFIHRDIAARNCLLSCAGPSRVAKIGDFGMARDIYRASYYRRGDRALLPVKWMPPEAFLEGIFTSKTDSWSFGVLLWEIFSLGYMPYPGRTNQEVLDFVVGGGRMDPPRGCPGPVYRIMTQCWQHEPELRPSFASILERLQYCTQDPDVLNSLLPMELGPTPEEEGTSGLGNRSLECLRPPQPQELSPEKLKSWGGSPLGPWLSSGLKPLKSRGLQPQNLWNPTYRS
# Procedure: as §1
# EPHA4 = EPHA4 (Homo sapiens, UniProt P54764); experiment: biochemical
# Procedure: as §1
# DDR2 = DDR2 (Homo sapiens, UniProt Q16832); experiment: biochemical
# Procedure: as §1
# RET = RET (Homo sapiens, UniProt P07949); experiment: biochemical
# Procedure: as §1
# GSK3β = target: T7, GSK3β (Homo sapiens, UniProt P49841); experiment: biochemical
# T7 construct: gene GSK3B
# T7 sequence (P49841 whole entry): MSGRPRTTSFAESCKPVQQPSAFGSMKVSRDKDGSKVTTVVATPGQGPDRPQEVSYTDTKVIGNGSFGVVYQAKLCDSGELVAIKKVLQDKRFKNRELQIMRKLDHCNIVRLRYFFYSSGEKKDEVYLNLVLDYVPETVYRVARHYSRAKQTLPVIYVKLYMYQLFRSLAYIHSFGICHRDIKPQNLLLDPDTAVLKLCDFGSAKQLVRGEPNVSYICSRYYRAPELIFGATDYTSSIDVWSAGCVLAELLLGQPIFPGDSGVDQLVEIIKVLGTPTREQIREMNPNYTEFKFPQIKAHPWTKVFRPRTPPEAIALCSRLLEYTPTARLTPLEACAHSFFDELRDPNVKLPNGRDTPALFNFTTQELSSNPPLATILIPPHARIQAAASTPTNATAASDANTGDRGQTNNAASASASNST
# Procedure: as §1
# PLK2 = PLK2 (Homo sapiens, UniProt Q9NYY3); experiment: biochemical
# Procedure: as §1
# ROCK2 = ROCK2 (Homo sapiens, UniProt O75116); experiment: biochemical
# Procedure: as §1
# PAK4 = PAK4 (Homo sapiens, UniProt O96013); experiment: biochemical
# Procedure: as §1
# BRK = target: T8, BRK (Homo sapiens, UniProt Q13882); experiment: biochemical
# T8 construct: gene PTK6
# T8 sequence (Q13882 whole entry): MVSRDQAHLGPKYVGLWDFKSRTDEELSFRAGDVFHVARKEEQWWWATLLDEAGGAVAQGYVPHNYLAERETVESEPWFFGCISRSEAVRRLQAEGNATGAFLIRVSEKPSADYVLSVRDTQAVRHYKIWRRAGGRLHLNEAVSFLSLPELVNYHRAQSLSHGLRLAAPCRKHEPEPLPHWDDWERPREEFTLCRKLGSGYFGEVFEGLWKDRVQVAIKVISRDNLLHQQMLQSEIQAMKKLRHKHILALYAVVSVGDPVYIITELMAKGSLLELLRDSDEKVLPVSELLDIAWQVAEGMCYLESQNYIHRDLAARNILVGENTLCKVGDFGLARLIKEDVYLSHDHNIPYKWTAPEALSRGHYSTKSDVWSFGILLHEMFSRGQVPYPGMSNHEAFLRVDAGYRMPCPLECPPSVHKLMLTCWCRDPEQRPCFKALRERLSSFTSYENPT
# Procedure: as §1
# QIK = target: T9, QIK (Homo sapiens, UniProt Q9H0K1); experiment: biochemical
# T9 construct: gene SIK2
# Procedure: as §1
# PKCα = target: T10, PKCα (Homo sapiens, UniProt P17252); experiment: biochemical
# T10 construct: gene PRKCA
# Procedure: as §1
# ARG = target: T11, ARG (Homo sapiens, UniProt P42684); experiment: biochemical
# T11 construct: gene ABL2
# Procedure: as §1
# LATS2 = LATS2 (Homo sapiens, UniProt Q9NRM7); experiment: biochemical
# Procedure: as §1
# CK1α = target: T12, CK1α (Homo sapiens, UniProt P48729); experiment: biochemical
# T12 construct: gene CSNK1A1
# T12 sequence (P48729 whole entry): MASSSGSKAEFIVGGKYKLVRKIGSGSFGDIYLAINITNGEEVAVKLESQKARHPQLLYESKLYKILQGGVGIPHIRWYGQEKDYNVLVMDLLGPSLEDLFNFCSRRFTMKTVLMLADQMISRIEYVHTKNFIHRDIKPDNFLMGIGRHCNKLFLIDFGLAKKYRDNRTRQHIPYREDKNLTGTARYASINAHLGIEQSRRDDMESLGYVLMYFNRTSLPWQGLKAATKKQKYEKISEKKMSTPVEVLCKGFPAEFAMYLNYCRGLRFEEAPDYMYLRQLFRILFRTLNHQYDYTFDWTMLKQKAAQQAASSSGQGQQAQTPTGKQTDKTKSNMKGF
# Procedure: as §1
# MGC42105 = target: T13, MGC42105 (Homo sapiens, UniProt Q8IY84); experiment: biochemical
# T13 construct: gene NIM1K
# Procedure: as §1
# AKT3 = AKT3 (Homo sapiens, UniProt Q9Y243); experiment: biochemical
# Procedure: as §1
# PHKG1 = PHKG1 (Homo sapiens, UniProt Q16816); experiment: biochemical
# Sequence of PHKG1 (Q16816 whole entry): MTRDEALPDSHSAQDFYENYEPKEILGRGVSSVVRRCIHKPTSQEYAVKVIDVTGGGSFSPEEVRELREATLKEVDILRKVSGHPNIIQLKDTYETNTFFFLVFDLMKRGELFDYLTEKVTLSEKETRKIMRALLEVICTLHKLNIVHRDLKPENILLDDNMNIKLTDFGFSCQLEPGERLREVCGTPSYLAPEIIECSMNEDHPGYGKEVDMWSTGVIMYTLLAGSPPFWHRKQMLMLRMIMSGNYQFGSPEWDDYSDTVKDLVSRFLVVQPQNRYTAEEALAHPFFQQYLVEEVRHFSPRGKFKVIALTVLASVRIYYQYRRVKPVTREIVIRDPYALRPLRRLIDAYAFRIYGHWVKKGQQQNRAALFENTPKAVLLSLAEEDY
# Procedure: as §1
# PDGFRα = target: T14, PDGFRα (Homo sapiens, UniProt P16234); experiment: biochemical
# T14 construct: gene PDGFRA
# Procedure: as §1
# T1 sequence (P49759 whole entry): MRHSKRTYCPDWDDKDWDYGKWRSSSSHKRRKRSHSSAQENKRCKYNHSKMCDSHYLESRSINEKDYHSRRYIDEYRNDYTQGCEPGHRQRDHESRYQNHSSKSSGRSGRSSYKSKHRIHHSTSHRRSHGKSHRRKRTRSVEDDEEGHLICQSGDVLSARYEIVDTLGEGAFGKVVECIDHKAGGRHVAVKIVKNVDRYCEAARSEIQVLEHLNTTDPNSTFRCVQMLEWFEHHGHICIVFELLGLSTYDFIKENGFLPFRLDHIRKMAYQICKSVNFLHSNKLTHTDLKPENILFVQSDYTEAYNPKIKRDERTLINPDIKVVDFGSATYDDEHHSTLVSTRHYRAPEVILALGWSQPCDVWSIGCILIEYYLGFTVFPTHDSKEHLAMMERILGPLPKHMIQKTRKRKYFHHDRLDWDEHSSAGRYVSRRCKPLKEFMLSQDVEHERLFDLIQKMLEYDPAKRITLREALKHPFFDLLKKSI
compound,measurement,setting,value
"c1cc(-c2ccc3[nH]ncc3c2)ccn1 [TG693, 5-(4-pyridinyl)-1H-indazole]",Ki,[1],105 nM
same,inhibition at 1 µM,Haspin,> 90%
same,%Inhibition,[2],92.6%
same,inhibition at 1 µM,PDGFRα(V561D),2.7%
same,inhibition at 1 µM,EPHA3,0.4%
same,inhibition at 1 µM,EPHA7,5%
same,inhibition at 1 µM,Erk2,-5.8%
same,inhibition at 1 µM,EGFR(T790M),-0.2%
same,inhibition at 1 µM,NuaK2,0.4%
same,inhibition at 1 µM,PKCγ,-11.4%
same,inhibition at 1 µM,AMPKα2/β1/γ1,1.7%
same,inhibition at 1 µM,EPHB2,0.3%
same,inhibition at 1 µM,ROS,8.1%
same,inhibition at 1 µM,LTK,3%
same,inhibition at 1 µM,EPHA4,2.4%
same,inhibition at 1 µM,DDR2,-2.2%
same,inhibition at 1 µM,RET,4.8%
same,inhibition at 1 µM,GSK3β,8.5%
same,inhibition at 1 µM,PLK2,2.9%
same,inhibition at 1 µM,ROCK2,46.3%
same,inhibition at 1 µM,PAK4,-13.7%
same,inhibition at 1 µM,BRK,5.2%
same,inhibition at 1 µM,QIK,3.4%
same,inhibition at 1 µM,PKCα,-5.4%
same,inhibition at 1 µM,ARG,4.7%
same,inhibition at 1 µM,LATS2,-3.8%
same,inhibition at 1 µM,CK1α,11.9%
same,inhibition at 1 µM,MGC42105,-22.2%
same,inhibition at 1 µM,AKT3,-4.6%
same,inhibition at 1 µM,PHKG1,0%
same,inhibition at 1 µM,PDGFRα,6.2%
